Test results published in patent publication EP4725946A1, “IRAK4 DEGRADATION AGENT AND USE THEREOF” (Guangzhou Unirise Pharmaceutical Co., Ltd., priority 2023, dated 2024).
Where two headings read alike, the source gives them in different places.

Target: T1, IRAK4 protein (Homo sapiens, UniProt Q9NWZ3)
T1 sequence (Q9NWZ3 1-460): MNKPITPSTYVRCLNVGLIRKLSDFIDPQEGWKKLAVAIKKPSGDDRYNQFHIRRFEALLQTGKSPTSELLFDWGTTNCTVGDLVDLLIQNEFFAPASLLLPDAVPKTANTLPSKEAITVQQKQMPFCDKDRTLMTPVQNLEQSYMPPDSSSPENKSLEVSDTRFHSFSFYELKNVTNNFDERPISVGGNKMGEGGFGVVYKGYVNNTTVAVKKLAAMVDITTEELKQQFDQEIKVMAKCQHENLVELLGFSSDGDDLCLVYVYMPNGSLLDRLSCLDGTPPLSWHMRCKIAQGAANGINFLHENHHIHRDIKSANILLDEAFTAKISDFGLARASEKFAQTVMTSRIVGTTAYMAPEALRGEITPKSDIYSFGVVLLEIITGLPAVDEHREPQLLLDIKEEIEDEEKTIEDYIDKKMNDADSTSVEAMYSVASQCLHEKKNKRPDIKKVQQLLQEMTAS
Test: IRAK4 Degradation Assay in THP-1 Cells (Western Blot)
Assay type: cell-based
Parameters: endogenous in cells; host or cells: THP-1 cells
Details: 24 hours, 0.0128 to 1000 nM, IRAK4 protein level by Western Blot; for Dmax: read-out: Dmax%
Experimental: In a 6-well cell culture plate, an appropriate number of THP-1 cells were seeded. The plate was placed in a 5% CO2 incubator at 37°C for overnight culture. Then, the test compound's dimethyl sulfoxide solution was added, with the final concentration ranging from 0.0128 to 1000 nM. After continuous culture for 24 hours, the culture medium was removed, and the cells were collected in a 1.5 mL centrifuge tube. After adding lysis buffer and grinding thoroughly, the mixture was placed on ice for 30 minutes. It was then centrifuged at 15,000 xg and 4°C for 20 minutes. The supernatant was taken, and the level of IRAK4 protein was detected by Western Blot.

Row | Compound | Dmax (THP-1, THP-1 cells) | DC50 (THP-1 cells, read-out: DC50) | Dmax (THP-1 cells) | Dmax% (THP-1 cells) | DC50 (THP-1 cells)
1 | O=C1CCC(N2Cc3cc(N4CCC(CN5CCC6(CC5)Cc5cc(NC(=O)c7cnn8cccnc78)c(N7CCC(CO)CC7)cc5O6)CC4)ccc3C2=O)C(=O)N1 (single isomer, unassigned) [Example 84] | 88.3% | 1.13 nM |  |  | 
2 | Cn1c(=O)n(C2CCC(=O)NC2=O)c2cccc(C3CC(CN4CCC5(CC4)Cc4cc(NC(=O)c6cnn7cccnc67)c(N6CCC(CO)CC6)cc4O5)C3)c21 (stereo not drawn) [Example 80] | 83.4% | 0.64 nM |  |  | 
3 | Cn1c(=O)n(C2CCC(=O)NC2=O)c2cccc(CN3CCC(CCN4CCC5(CC4)Cc4cc(NC(=O)c6cnn7cccnc67)c(N6CCC(CO)CC6)cc4O5)CC3)c21 (stereo not drawn) [Compound 1] | 91.9% | 1.09 nM |  |  | 
4 | COCC1CCN(c2cc3c(cc2NC(=O)c2cnn4cccnc24)CC2(CCN(C[C@H]4CC[C@H](OCC#Cc5cccc6c5n(C)c(=O)n6C5CCC(=O)NC5=O)CC4)CC2)O3)CC1 (stereo partly drawn) [Compound 44] |  | 6.38 nM | 84.9% |  | 
5 | Cn1c(=O)n(C2CCC(=O)NC2=O)c2cccc(C#CCO[C@H]3CC[C@@H](CN4CCC5(Cc6cc(NC(=O)c7cnn8cccnc78)c(N7CCC(CO)CC7)cc6O5)C4)CC3)c21 (stereo partly drawn) [Compound 58] |  | 3.69 nM | 85.6% |  | 
6 | Cn1c(=O)n(C2CCC(=O)NC2=O)c2cccc(C#CCO[C@H]3CC[C@H](C(=O)N4CCC5(CC4)Cc4cc(NC(=O)c6cnn7cccnc67)c(N6CCC(CO)CC6)cc4O5)CC3)c21 (relative stereo) [Compound 74] | 86.2% | 2.78 nM |  |  | 
7 | Cn1c(=O)n(C2CCC(=O)NC2=O)c2cccc(N3CCC(CCN4CCC5(CC4)Cc4cc(NC(=O)c6cnn7cccnc67)c(N6CCC(CO)CC6)cc4O5)CC3)c21 (stereo not drawn) [Example 96] | 92% | 1.65 nM |  |  | 
8 | Cn1c(=O)n(C2CCC(=O)NC2=O)c2cccc(C#CCOC3CCN(CCN4CCC5(CC4)Cc4cc(NC(=O)c6cnn7cccnc67)c(N6CCC(CO)CC6)cc4O5)CC3)c21 (stereo not drawn) [Compound 19] | 87.9% | 2.18 nM |  |  | 
9 | Cn1c(=O)n(C2CCC(=O)NC2=O)c2cccc(C#CCO[C@H]3CC[C@H](CN4CCC5(CC4)Cc4cc(NC(=O)c6cnn7cc(C#N)cnc67)c(N6CCC(CO)CC6)cc4O5)CC3)c21 (stereo partly drawn) [Example 87] |  | 4.06 nM | 90% |  | 
10 | Cc1cc(-c2nc(C(=O)Nc3cc4c(cc3N3CCC(O)CC3)OC3(CCN(C[C@H]5CC[C@H](OCC#Cc6cccc7c6n(C)c(=O)n7C6CCC(=O)NC6=O)CC5)CC3)C4)co2)ccn1 (stereo partly drawn) [Example 88] |  | 5.4 nM | 89% |  | 
11 | COC1(CN2CCC3(CC2)Cc2cc(NC(=O)c4cnn5cccnc45)c(N4CCC(CO)CC4)cc2O3)CCN(c2cccc3c2n(C)c(=O)n3C2CCC(=O)NC2=O)CC1 (stereo not drawn) [Example 79] | 89.5% | 1.55 nM |  |  | 
12 | Cc1cc(-c2nc(C(=O)Nc3cc4c(cc3N3CCC(CO)CC3)OC3(CCN(C[C@H]5CC[C@H](OCC#Cc6cccc7c6n(C)c(=O)n7C6CCC(=O)NC6=O)CC5)CC3)C4)co2)ccn1 (stereo partly drawn) [Example 89] |  | 6.02 nM | 84.6% |  | 
13 | O=C1CCC(N2Cc3cc(N4CCC(CN5CCC6(CC5)Cc5cc(NC(=O)c7cnn8cccnc78)c(N7CCC(CO)CC7)cc5O6)CC4)ccc3C2=O)C(=O)N1 (single isomer, unassigned) [Example 85] |  | 0.66 nM |  | 89.8% | 
14 | O=C1CCC(N2C(=O)c3cc(F)c(N4CCC(CN5CCC6(CC5)Cc5cc(NC(=O)c7cnn8cccnc78)c(N7CCC(CO)CC7)cc5O6)CC4)cc3C2=O)C(=O)N1 (stereo not drawn) [Example 97] | 87.9% | 7.85 nM |  |  | 
15 | Cn1c(=O)n(C2CCC(=O)NC2=O)c2cccc(C#CCOC3CCN(CCN4CCC5(Cc6cc(NC(=O)c7coc8cccnc78)c(N7CCC(CO)CC7)cc6O5)C4)CC3)c21 (stereo not drawn) [Compound 23] |  | 3.08 nM | 88.3% |  | 
16 | Cn1c(=O)n(C2CCC(=O)NC2=O)c2cccc(CN3CCC(CCN4CCC5(CC4)Oc4cc(NC(=O)c6coc7cccnc67)c(N6CCC(CO)CC6)cc4O5)CC3)c21 (stereo not drawn) [Compound 14] |  | 3.4 nM | 89.2% |  | 
17 | O=C1CCC(N2C(=O)c3ccc(N4CCC(CN5CCC6(CC5)Cc5cc(NC(=O)c7cnn8cccnc78)c(N7CCC(CO)CC7)cc5O6)CC4)cc3C2=O)C(=O)N1 (stereo not drawn) [Example 82] | 85.6% | 3.44 nM |  |  | 
18 | Cn1c(=O)n(C2CCC(=O)NC2=O)c2cccc(CN3CCC(CCN4CCC5(CC4)Cc4cc(NC(=O)c6coc7cccnc67)c(N6CCC(CO)CC6)cc4O5)CC3)c21 (stereo not drawn) [Compound 3] |  | 4.14 nM | 93.5% |  | 

Row | Compound | Dmax (THP-1, THP-1 cells) | DC50 (THP-1 cells, read-out: DC50) | Dmax (THP-1 cells) | Dmax% (THP-1 cells) | DC50 (THP-1 cells)
19 | Cn1c(=O)n(C2CCC(=O)NC2=O)c2cccc(C3CCC(CN4CCC5(CC4)Cc4cc(NC(=O)c6cnn7cccnc67)c(N6CCC(CO)CC6)cc4O5)CC3)c21 (stereo not drawn) [Example 98] | 88.6% | 1.1 nM |  |  | 
20 | Cn1c(=O)n(C2CCC(=O)NC2=O)c2cccc(C#CCO[C@H]3CC[C@H](CN4CCC5(CC4)Cc4cc(NC(=O)c6cnn7cc(CO)cnc67)c(N6CCC(CO)CC6)cc4O5)CC3)c21 (stereo partly drawn) [Example 90] |  | 2.24 nM | 87.1% |  | 
21 | Cn1c(=O)n(C2CCC(=O)NC2=O)c2cccc(C#CCO[C@H]3CC[C@H](CN4CCC5(CC4)Cc4cc(NC(=O)c6cnn7cccnc67)c(N6CCC(CO)CC6)cc4C5)CC3)c21 (stereo partly drawn) [Compound 53] |  | 2.77 nM | 77.5% |  | 
22 | Cn1c(=O)n(C2CCC(=O)NC2=O)c2cccc(C#CCO[C@H]3CC[C@@H](CN4CCC5(CC4)Cc4cc(NC(=O)c6coc7cccnc67)c(N6CCC(CO)CC6)cc4O5)CC3)c21 (stereo partly drawn) [Compound 56] |  | 7.79 nM | 90.4% |  | 
23 | Cn1c(=O)n(C2CCC(=O)NC2=O)c2cccc(C#CCOC3CCN(CCN4CCC5(CC4)Oc4cc(NC(=O)c6cnn7cccnc67)c(N6CCC(CO)CC6)cc4O5)CC3)c21 (stereo not drawn) [Compound 28] |  | 3.38 nM | 86.5% |  | 
24 | Cn1c(=O)n(C2CCC(=O)NC2=O)c2cccc(C#CCO[C@H]3CC[C@H](CN4CCC5(Cc6cc(NC(=O)c7coc8cccnc78)c(N7CCC(CO)CC7)cc6O5)C4)CC3)c21 (stereo partly drawn) [Compound 54] |  | 3.5 nM | 91.1% |  | 
25 | Cn1c(=O)n(C2CCC(=O)NC2=O)c2cccc(C#CCOC3CCN(CCN4CCC5(CC4)Oc4cc(NC(=O)c6coc7cccnc67)c(N6CCC(CO)CC6)cc4O5)CC3)c21 (stereo not drawn) [Compound 29] |  | 7.12 nM | 92.8% |  | 
26 | Cn1c(=O)n(C2CCC(=O)NC2=O)c2cccc(C#CCOC3CCN(CCN4CCC5(CC4)Cc4cc(NC(=O)c6coc7cccnc67)c(N6CCC(CO)CC6)cc4O5)CC3)c21 (stereo not drawn) [Compound 21] |  | 3.58 nM | 91.6% |  | 
27 | Cn1c(=O)n(C2CCC(=O)NC2=O)c2cccc(C#CCO[C@H]3CC[C@H](CN4CCC5(CC4)Cc4cc(NC(=O)c6cnn7cc(Cl)cnc67)c(N6CCC(O)CC6)cc4O5)CC3)c21 (stereo partly drawn) [Example 86] |  | 2.98 nM | 86.2% |  | 
28 | Cn1c(=O)n(C2CCC(=O)NC2=O)c2cccc(CN3CC4(CCN(CCN5CCC6(CC5)Cc5cc(NC(=O)c7cnn8cccnc78)c(N7CCC(CO)CC7)cc5O6)CC4)C3)c21 (stereo not drawn) [Compound 33] |  |  | 94.8% |  | 1.66 nM
29 | O=C1CCC(N2Cc3c(CN4CCC(CCN5CCC6(CC5)Cc5cc(NC(=O)c7cnn8cccnc78)c(N7CCC(CO)CC7)cc5O6)CC4)cccc3C2=O)C(=O)N1 (stereo not drawn) [Compound 64] | 89.3% | 1.3 nM |  |  | 
30 | Cn1nc(N2CCC(=O)NC2=O)c2cccc(CN3CCC(CCN4CCC5(CC4)Cc4cc(NC(=O)c6coc7cccnc67)c(N6CCC(CO)CC6)cc4O5)CC3)c21 [Compound 62] | 82.8% | 7.34 nM |  |  | 
31 | Cn1c(=O)n(C2CCC(=O)NC2=O)c2cccc(C#CCO[C@H]3CC[C@H](CN4CCC5(CC4)Cc4cc(NC(=O)c6coc7cccnc67)c(N6CCC(CO)CC6)cc4C5)CC3)c21 (stereo partly drawn) [Compound 52] |  | 5.25 nM | 89.2% |  | 
32 | Cn1c(=O)n(C2CCC(=O)NC2=O)c2cccc(CN3CCC(CCN4CCC5(CC4)Cc4cc(NC(=O)c6cnn7cccnc67)c(N6CCN(CC(F)F)CC6)cc4O5)CC3)c21 (stereo not drawn) [Compound 6] |  | 9.65 nM | 85.1% |  | 
33 | O=C1CCC(N2C(=O)c3cc(F)c(N4CCC(CCN5CCC6(CC5)Cc5cc(NC(=O)c7cnn8cccnc78)c(N7CCC(CO)CC7)cc5O6)CC4)cc3C2=O)C(=O)N1 (stereo not drawn) [Compound 72] | 92.6% | 7.7 nM |  |  | 
34 | Cn1c(=O)n(C2CCC(=O)NC2=O)c2cccc(C#CCOCCNCCN3CCC4(CC3)Cc3cc(NC(=O)c5cnn6cccnc56)c(N5CCC(CO)CC5)cc3O4)c21 (stereo not drawn) [Compound 59] | 88.6% | 1.17 nM |  |  | 
35 | Cn1c(=O)n(C2CCC(=O)NC2=O)c2cccc(N3CCC(O)(CC(=O)N4CCC5(CC4)Cc4cc(NC(=O)c6cnn7cccnc67)c(N6CCC(CO)CC6)cc4O5)CC3)c21 (stereo not drawn) [Example 81] | 90.2% | 1.02 nM |  |  | 
36 | Cn1c(=O)n(C2CCC(=O)NC2=O)c2cccc(CN3CCC4(CC3)CN(CCN3CCC5(CC3)Cc3cc(NC(=O)c6cnn7cccnc67)c(N6CCC(CO)CC6)cc3O5)C4)c21 (stereo not drawn) [Compound 32] |  |  | 95.4% |  | 1.53 nM
